Source: patent publication US9950044B2, “Treatment of pulmonary vascular remodeling with neprilysin” (THE REGENTS OF THE UNIVERSITY OF COLORADO, A BODY CORPORATE, priority 2010, dated 2018)
Values belong to the molecule of their own block, whether it stands above or below them.

Key:
[1] = molecular target: NEP activity in ‘Control’ human lung homogenates (Homo sapiens, UniProt P08473); test: biochemical; details: read-out: inhibition of NEP activity in ‘Control’ crude lung homogenates
Procedure: (§1) Lung samples ([…]) or PA SMCs were homogenized in 0.5 ml 20 mM MES, pH 6.5, containing protease inhibitors, and for PA SMCs, 0.5% CHAPS. After centrifugation (10,000×g, 10 min), supernatant was stored at −80° C. NEP activity was measured as described (Dempsey et al., 2009). DPPIV activity was measured by DPPIV-Glo Protease Assay (Promega). Western analyses (Dempsey et al., 2009) with anti-human NEP (56C6, Neomarkers) were assessed by densitometry.

[2] = molecular target: recombinant human NEP (Homo sapiens, UniProt P08473); test: biochemical; details: read-out: inhibition of residual rNEP activity
Procedure: as §1

[3] = molecular target: T1, NEP in human PA SMCs (Homo sapiens, UniProt P08473); test: NEP catalytic activity in human PA SMCs (fluorometric); assay type: cell-based; details: for prevention of H2O2-induced decreases in PA SMC NEP activity: antioxidant added 0.5 h before 4 h H2O2 (100 μM), MnTMPyp 20 μM, PEG-catalase 40 units/ml
T1 construct: host or cells: primary human PA SMCs, passages 6-10
Procedure: as §1
(§2) PA SMCs were isolated from the main PA of ‘normal’ human tissue donors (Clonetics®, Basel, Switzerland, α-SM actin positive, Factor VIII negative). Passages 6-10 were maintained in SmBM® (5% FBS), at 37° C., and used for experimentation. […] The antioxidants Tiron (2.5 mM; Sigma) (Taiwo, 2008), MnTMPyp (an SOD/catalase mimetic (Day et al., 1997), 20 μM; Calbiochem), or polyethylene glycol (PEG) conjugated catalase Beckman et al., 1988) (40 units/ml; Sigma), or the protein degradation inhibitors (Folimycin Huss and Wieczorek, 2009) for lysosomes, 50 nM; Clastolactacystin β-lactone (Dick et al., 1996) for proteasomes, 1 μM; Calbiochem) were added 0.5 or 2 h, respectively, before exposures.

[4] = system: NEP mRNA in human PA SMCs; test: NEP mRNA levels in human PA SMCs (qRT-PCR); assay type: cell-based
Procedure: as §2

[5] = system: NEP+/+ PASMCs; test: Migration of NEP+/+ PASMCs (scratch assay); assay type: cell-based, mouse; details: wild-type PASMCs, 48 h treatment; phosphoramidon 10 μMole/L or NEP siRNA 10 nMole/L; serum 0.2%, PDGF 10 ng/ml
Procedure: (§3) Mice were anesthetized with sodium pentobarbital (100 mg/kg i.p.). Proximal medial tissue was micro dissected from individual age matched 13-17 wk old NEP+/+ and NEP−/− littermate mice. Tissue was digested with […] and cells were grown in DMEM-F-12 medium containing 10% fetal bovine serum (FBS) as described (Petkov et al., 2003). PASMCs were characterized by light microscopic appearance, growth characteristics, and stained for α-SM-actin, SM-myosin, Factor VIII and LDL between passage 3 and 6. PASMCs were used for studies between passage 6 and 13.
Briefly, PASMCs were grown to confluence on 60 mm plates (Hamidi et al., 2008). The cells were serum starved in DMEM-F-12 medium with 0.2% serum for 24 h, and scraped with a sterile P200 pipette tip to generate a cell-free zone. PASMCs were then rinsed with medium and incubated with either 0.2% serum or 10 ng/ml PDGF-BB and cells that migrated into the scratch were visualized by light microscopic imaging. Quantitation of migration was done by counting the number of PASMCs in a 5 cm^2 area of the scratch. […]
Migration was determined by a modified Boyden chamber assay using a polycarbonate filter with […] pore diameter obtained from Neuroprobe (Gaithersburg, Md.) (Said et al., 2007). […] The membranes were examined under a microscope and the cells that migrated to the lower surface were counted (five random 20× fields/well).

[6] = system: NEP+/+ PASMCs; test: Proliferation of NEP+/+ PASMCs (3H-thymidine incorporation); assay type: cell-based, mouse; details: wild-type PASMCs, 48 h treatment; phosphoramidon 10 μMole/L or NEP siRNA 10 nMole/L; serum 0.2%, PDGF 10 ng/ml
Procedure: as §3
The effects of growth factors and neuropeptides on DNA synthesis were evaluated as previously reported (Petkov et al., 2003). SMCs were grown in DMEM containing 10% FBS in 24-well plates for about 16 hr. PASMCs were then incubated in DMEM supplemented with 0.2% FBS for 24 hr to make them quiescent. […] [^3H]-thymidine obtained from Perkin Elmer (Waltham, Mass.) at 1 mCi/ml was added for the last 6 hr. After labeling was completed, the cells were washed twice with ice-cold PBS, and proteins were precipitated with 5% perchloric acid. The precipitate was dissolved with 0.5N NaOH and SDS and radioactivity was measured using a liquid scintillation counter made by Beckman Coulter, Inc. (Brea, Calif.).

[7] = system: SM-contractile proteins (α-SM-actin, SM-myosin, SM-22, calponin); test: SM-contractile protein expression in PASMCs (Western blotting); assay type: cell-based, mouse
Procedure: Cell lysates were prepared in immunoprecipitation buffer (20 mM Tris HCl (pH 7.5), 150 mM NaCl, 1 mM EDTA, 10% glycerol, 1% Nonidet P-40; 1 mM dithiothreitol, 10 mM NaF, 1 mM sodium orthovanadate, 10 μg/ml leupeptin, 10 μg/ml aprotinin, 10 μg/ml pepstatin A, and 1 mM phenylmethylsulfonyl fluoride) (Petkov et al., 2003). Cells were scraped from the plates, lysed on ice for 30 min. Cellular debris was eliminated by centrifugation for 10 min at 10,000 rpm. The protein concentration was determined by the BCA protein Assay®. Proteins (20-100 μg) were separated on SDS-PAGE and transferred to nitrocellulose membranes obtained from GE Healthcare, (Piscataway, N.J.). Membranes were blocked in PBS containing 0.1% Tween-20 and 1% BSA for 1 h at room temperature. Membranes were incubated with primary antibodies overnight at 4° C., and with secondary antibodies for 1 h at room temperature. All antibodies were diluted in PBS containing 0.1% Tween 20 and 1% BSA, and ECL reagent obtained from Perkin Elmer (Waltham, Mass.) was used for immunodetection. GAPDH was used as a loading control.
A Bio-Rad gel scanner and densitometer (Gel DocXR with Quantity 1 program) were used to assess the intensity of the bands obtained by Western blots. […] The arbitrary units obtained were normalized to GAPDH and the ratios for NEP+/+ to NEP−/− PASMCs were calculated. […]

[8] = molecular target: T2, NEP activity in wild-type cells (Mus musculus, UniProt Q61391); details: phosphoramidon 10 μmole/liter; cited from earlier work
T2 construct: endogenous in cells; host or cells: wild-type (NEP+/+) mouse PASMCs
T2 sequence (Q61391 1-750): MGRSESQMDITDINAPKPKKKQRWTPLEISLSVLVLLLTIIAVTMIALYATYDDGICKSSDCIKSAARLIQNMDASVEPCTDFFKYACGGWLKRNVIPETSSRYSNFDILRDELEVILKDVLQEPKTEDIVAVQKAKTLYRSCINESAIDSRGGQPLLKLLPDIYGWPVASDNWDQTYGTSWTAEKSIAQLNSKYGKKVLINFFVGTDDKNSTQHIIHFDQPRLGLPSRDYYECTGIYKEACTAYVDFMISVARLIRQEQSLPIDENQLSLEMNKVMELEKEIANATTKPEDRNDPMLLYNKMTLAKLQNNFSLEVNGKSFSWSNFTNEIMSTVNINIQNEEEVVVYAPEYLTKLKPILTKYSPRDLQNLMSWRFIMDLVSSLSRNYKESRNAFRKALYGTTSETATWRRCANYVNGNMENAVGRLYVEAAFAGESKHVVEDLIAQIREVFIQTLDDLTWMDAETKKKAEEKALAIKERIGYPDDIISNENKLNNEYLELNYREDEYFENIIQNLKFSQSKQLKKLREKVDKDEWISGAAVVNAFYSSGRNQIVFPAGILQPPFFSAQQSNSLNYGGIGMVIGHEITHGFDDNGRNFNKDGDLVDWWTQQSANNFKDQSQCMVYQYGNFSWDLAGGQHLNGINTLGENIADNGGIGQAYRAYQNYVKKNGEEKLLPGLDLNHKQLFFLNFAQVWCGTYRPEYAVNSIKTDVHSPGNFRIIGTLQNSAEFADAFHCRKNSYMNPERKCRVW

[9] = system: NEP KO PA SMCs; details: added to the cell culture media or lentiviral transduction; cited from earlier work

T1 sequence (P08473 whole entry): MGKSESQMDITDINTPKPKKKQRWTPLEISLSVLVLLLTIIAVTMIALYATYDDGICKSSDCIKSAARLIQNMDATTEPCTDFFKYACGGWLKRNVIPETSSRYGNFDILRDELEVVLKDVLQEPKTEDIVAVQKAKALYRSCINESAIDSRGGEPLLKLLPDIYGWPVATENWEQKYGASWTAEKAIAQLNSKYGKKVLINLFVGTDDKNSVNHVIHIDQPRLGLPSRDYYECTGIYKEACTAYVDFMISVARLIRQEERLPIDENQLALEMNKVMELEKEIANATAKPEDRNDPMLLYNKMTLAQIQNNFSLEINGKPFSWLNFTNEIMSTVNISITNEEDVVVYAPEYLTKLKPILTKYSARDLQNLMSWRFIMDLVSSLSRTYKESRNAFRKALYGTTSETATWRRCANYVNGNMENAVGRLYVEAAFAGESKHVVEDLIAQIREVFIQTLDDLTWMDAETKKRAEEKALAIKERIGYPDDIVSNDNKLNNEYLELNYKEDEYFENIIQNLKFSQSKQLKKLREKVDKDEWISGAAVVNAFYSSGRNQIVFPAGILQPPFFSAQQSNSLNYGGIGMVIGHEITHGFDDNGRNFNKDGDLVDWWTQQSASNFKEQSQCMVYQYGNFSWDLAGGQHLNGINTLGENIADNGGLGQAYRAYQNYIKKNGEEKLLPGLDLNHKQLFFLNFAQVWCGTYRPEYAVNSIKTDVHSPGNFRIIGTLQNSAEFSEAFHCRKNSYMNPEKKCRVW
Sequence of recombinant human NEP (P08473 whole entry): as above
Sequence of NEP activity in ‘Control’ human lung homogenates (P08473 whole entry): as above

Molecule: CC(C)C[C@H](NP(=O)(O)O[C@@H]1O[C@@H](C)[C@H](O)[C@@H](O)[C@H]1O)C(=O)N[C@@H](Cc1c[nH]c2ccccc12)C(=O)O [phosphoramidon]
migration in response to serum and PDGF [5]: increased
proliferation in response to serum and PDGF [6]: increased
expression of SM-contractile proteins in NEP+/+ cells ([7]; phosphoramidon 10 μMole/L or NEP siRNA 10 nMole/L): decrease
inhibition of NEP activity in wild-type cells [8]: completely inhibits

Molecule: MnTMPyp
prevention of H2O2-induced decreases in PA SMC NEP activity ([3]; Tiron 2.5 mM): prevented

B2: rNEP: recombinant human neprilysin protein (protein, UniProt P08473 2-750, looked up)
Neprilysin: GKSESQMDITDINTPKPKKKQRWTPLEISLSVLVLLLTIIAVTMIALYATYDDGICKSSDCIKSAARLIQNMDATTEPCTDFFKYACGGWLKRNVIPETSSRYGNFDILRDELEVVLKDVLQEPKTEDIVAVQKAKALYRSCINESAIDSRGGEPLLKLLPDIYGWPVATENWEQKYGASWTAEKAIAQLNSKYGKKVLINLFVGTDDKNSVNHVIHIDQPRLGLPSRDYYECTGIYKEACTAYVDFMISVARLIRQEERLPIDENQLALEMNKVMELEKEIANATAKPEDRNDPMLLYNKMTLAQIQNNFSLEINGKPFSWLNFTNEIMSTVNISITNEEDVVVYAPEYLTKLKPILTKYSARDLQNLMSWRFIMDLVSSLSRTYKESRNAFRKALYGTTSETATWRRCANYVNGNMENAVGRLYVEAAFAGESKHVVEDLIAQIREVFIQTLDDLTWMDAETKKRAEEKALAIKERIGYPDDIVSNDNKLNNEYLELNYKEDEYFENIIQNLKFSQSKQLKKLREKVDKDEWISGAAVVNAFYSSGRNQIVFPAGILQPPFFSAQQSNSLNYGGIGMVIGHEITHGFDDNGRNFNKDGDLVDWWTQQSASNFKEQSQCMVYQYGNFSWDLAGGQHLNGINTLGENIADNGGLGQAYRAYQNYIKKNGEEKLLPGLDLNHKQLFFLNFAQVWCGTYRPEYAVNSIKTDVHSPGNFRIIGTLQNSAEFSEAFHCRKNSYMNPEKKCRVW
levels of SM-markers (α-SM-actin, SM-22, calponin) in null PASMCs ([7]; NEP−/− PASMC, lentiviral human NEP construct or rNEP 10 μg/ml): restored
proliferation of the NEP KO PA SMCs [9]: dose-dependent inhibition

Second part, led by results:

inhibition at 100 µM [1]: 38%
inhibition at 100 µM [2]: 68%
NEP activity after exposure, without Tiron ([3]; 4 h exposure, CSE 5 μg/ml, H2O2 100 μM): significantly decreased
Molecule: OO [H2O2, hydrogen peroxide]
effect on NEP mRNA expression ([4]; 100 μM H2O2, 48 h): did not significantly decrease
transient decrease in NEP mRNA ([4]; after 4 h exposure to H2O2, preliminary experiments): 40%

prevention of decreases in NEP activity due to CSE, hypoxia or H2O2 ([3]; Tiron 2.5 mM, 0.5 h before and throughout 4 h exposure): prevented
NEP activity under normoxia with Tiron vs normoxia alone ([3]; Tiron 2.5 mM, normoxia): did not differ significantly
prevention of H2O2-induced decreases in PA SMC NEP activity ([3]; Tiron 2.5 mM): prevented
Molecule: O=S(=O)(O)c1cc(O)c(O)c(S(=O)(=O)O)c1 [Tiron]

prevention of H2O2-induced decreases in PA SMC NEP activity ([3]; Tiron 2.5 mM): prevented
B1: PEG-catalase: polyethylene glycol (PEG) conjugated catalase, antioxidant (conjugate, UniProt P00432 2-527, looked up)
Catalase: ADNRDPASDQMKHWKEQRAAQKPDVLTTGGGNPVGDKLNSLTVGPRGPLLVQDVVFTDEMAHFDRERIPERVVHAKGAGAFGYFEVTHDITRYSKAKVFEHIGKRTPIAVRFSTVAGESGSADTVRDPRGFAVKFYTEDGNWDLVGNNTPIFFIRDALLFPSFIHSQKRNPQTHLKDPDMVWDFWSLRPESLHQVSFLFSDRGIPDGHRHMNGYGSHTFKLVNANGEAVYCKFHYKTDQGIKNLSVEDAARLAHEDPDYGLRDLFNAIATGNYPSWTLYIQVMTFSEAEIFPFNPFDLTKVWPHGDYPLIPVGKLVLNRNPVNYFAEVEQLAFDPSNMPPGIEPSPDKMLQGRLFAYPDTHRHRLGPNYLQIPVNCPYRARVANYQRDGPMCMMDNQGGAPNYYPNSFSAPEHQPSALEHRTHFSGDVQRFNSANDDNVTQVRTFYLKVLNEEQRKRLCENIAGHLKDAQLFIQKKAVKNFSDVHPEYGSRIQALLDKYNEEKPKNAVHTYVQHGSHLSAREKANL
modifications: PEG conjugated
notes: polyethylene glycol (PEG) conjugated catalase, antioxidant
